IC50 data for 30 molecules are collected here from patent US9212182B2, “Bicyclic sulfonamide compounds as sodium channel inhibitors” (AMGEN INC., priority 2013, dated 2015).

Molecules are shown by their SMILES. Read-outs that look alike come from different tables or passages of the source.

Broadly, the IC50 is the concentration needed to halve the response being measured. A high value points to a need for much substance.

In this test the target is Nav 1.7 (Homo sapiens (Human), UniProt Q15858). Briefly: in-vitro Nav 1.7 PX (IC50). Type of test: cell-based.
Where [1] appears, read: in-vitro Nav 1.7 PX data (PatchXpress).

Sequence of Nav 1.7 (Q15858 whole entry): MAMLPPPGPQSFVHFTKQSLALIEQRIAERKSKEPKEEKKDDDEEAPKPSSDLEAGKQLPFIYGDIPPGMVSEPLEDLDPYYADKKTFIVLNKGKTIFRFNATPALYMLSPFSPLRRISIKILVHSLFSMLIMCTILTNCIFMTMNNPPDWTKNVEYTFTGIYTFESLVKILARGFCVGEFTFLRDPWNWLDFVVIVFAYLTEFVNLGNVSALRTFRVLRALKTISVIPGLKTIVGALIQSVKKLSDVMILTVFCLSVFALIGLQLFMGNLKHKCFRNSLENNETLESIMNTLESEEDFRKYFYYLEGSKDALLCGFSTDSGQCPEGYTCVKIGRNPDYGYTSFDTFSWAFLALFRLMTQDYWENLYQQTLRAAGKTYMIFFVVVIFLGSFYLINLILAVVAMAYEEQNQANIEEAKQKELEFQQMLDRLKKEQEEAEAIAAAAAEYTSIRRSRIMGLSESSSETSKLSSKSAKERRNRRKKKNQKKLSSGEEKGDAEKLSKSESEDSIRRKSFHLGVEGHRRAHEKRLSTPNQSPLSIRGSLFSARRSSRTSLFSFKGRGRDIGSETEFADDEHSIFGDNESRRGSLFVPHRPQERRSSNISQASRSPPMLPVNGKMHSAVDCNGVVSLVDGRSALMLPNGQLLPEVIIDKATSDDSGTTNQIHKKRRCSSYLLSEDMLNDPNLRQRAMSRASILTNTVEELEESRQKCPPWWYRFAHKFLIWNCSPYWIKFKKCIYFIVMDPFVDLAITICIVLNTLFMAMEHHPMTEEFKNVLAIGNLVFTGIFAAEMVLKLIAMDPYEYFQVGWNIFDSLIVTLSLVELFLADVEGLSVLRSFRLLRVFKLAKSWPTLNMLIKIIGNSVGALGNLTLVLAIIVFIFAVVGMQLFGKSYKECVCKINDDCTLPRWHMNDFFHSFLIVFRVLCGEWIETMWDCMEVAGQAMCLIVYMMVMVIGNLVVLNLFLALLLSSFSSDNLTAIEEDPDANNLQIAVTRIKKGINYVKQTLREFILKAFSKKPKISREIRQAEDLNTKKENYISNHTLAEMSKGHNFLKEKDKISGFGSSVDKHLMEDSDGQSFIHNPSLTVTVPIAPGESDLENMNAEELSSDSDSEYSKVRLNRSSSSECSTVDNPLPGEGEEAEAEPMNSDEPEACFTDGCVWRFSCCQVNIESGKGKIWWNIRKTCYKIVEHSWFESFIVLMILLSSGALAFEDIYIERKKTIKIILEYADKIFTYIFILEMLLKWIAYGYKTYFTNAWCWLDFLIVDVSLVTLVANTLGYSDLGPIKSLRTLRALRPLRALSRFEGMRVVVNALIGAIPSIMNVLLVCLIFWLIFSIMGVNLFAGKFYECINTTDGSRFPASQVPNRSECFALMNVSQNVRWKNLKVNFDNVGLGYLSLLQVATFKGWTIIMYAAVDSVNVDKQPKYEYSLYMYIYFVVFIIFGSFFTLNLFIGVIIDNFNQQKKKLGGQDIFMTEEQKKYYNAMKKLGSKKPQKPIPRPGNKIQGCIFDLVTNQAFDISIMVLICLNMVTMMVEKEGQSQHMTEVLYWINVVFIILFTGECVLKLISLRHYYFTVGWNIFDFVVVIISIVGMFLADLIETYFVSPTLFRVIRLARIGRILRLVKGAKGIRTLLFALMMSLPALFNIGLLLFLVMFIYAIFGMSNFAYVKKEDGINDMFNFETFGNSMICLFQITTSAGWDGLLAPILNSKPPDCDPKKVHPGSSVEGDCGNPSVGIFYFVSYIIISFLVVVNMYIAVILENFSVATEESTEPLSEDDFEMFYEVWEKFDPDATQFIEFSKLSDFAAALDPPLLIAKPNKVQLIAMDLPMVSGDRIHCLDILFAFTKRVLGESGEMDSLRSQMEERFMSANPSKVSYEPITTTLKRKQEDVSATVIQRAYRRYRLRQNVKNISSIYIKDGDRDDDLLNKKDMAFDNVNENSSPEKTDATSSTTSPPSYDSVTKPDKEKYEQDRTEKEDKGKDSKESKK

In turn, `COc1cc(-c2cccc(C)c2)ccc1-n1c(=O)ccc2cc(S(=O)(=O)Nc3ncc(F)cn3)ccc21` [Example 1119, N-(5-fluoro-2-pyrimidinyl)-1-(3-methoxy-3′-methyl-4-biphenylyl)-2-oxo-1,2-dihydro-6-quinolinesulfonamide] displayed an IC50 (in-vitro Nav 1.7 PX data) of 40 nM.
`COc1cc(C#CC2(F)CCCC2)c(F)cc1-n1c(=O)ccc2cc(S(=O)(=O)Nc3ccon3)ccc21` (atropisomer, axis not shown; (P)) [Example 1153, (P)-1-(5-fluoro-4-((1-fluorocyclopentyl)ethynyl)-2-methoxyphenyl)-N-3-isoxazolyl-2-oxo-1,2-dihydro-6-quinolinesulfonamide] gave a half-inhibitory concentration (IC50) of 35 nM.
As for `COc1cc(-c2cccc(C)c2F)c(F)cc1-n1c(=O)ccc2cc(S(=O)(=O)Nc3ccon3)ccc21` [Example 719, 1-(2,2′-difluoro-5-methoxy-3′-methyl-4-biphenylyl)-N-3-isoxazolyl-2-oxo-1,2-dihydro-6-quinolinesulfonamide], the IC50 (in-vitro Nav 1.7 PX data) is 49 nM.
For the molecule `COc1ccc(C)c(-c2ccc(-n3c(=O)ccc4cc(S(=O)(=O)Nc5ccon5)ccc43)c(OC)c2)c1` [Example 1037, 1-(3,5′-dimethoxy-2′-methyl-4-biphenylyl)-N-3-isoxazolyl-2-oxo-1,2-dihydro-6-quinolinesulfonamide], the 50% inhibitory concentration (IC50) under setting [1] worked out at 24 nM.
Under “in-vitro Nav 1.7 PX data”, `COc1cnc(Cl)cc1-n1c(=O)ccc2cc(S(=O)(=O)Nc3ccon3)ccc21` [Example 617, 1-(2-chloro-5-methoxy-4-pyridinyl)-N-3-isoxazolyl-2-oxo-1,2-dihydro-6-quinolinesulfonamide] had a concentration for half-maximal inhibition (IC50) of 3880 nM.
Regarding `COc1cc(-c2cccc(OC(C)C)c2)ccc1-n1c(=O)ccc2cc(S(=O)(=O)Nc3cccnn3)ccc21` (atropisomer, axis not shown; (P)) [Example 1207, (P)-1-(3-methoxy-3′-(1-methylethoxy)-4-biphenylyl)-2-oxo-N-3-pyridazinyl-1,2-dihydro-6-quinolinesulfonamide], inhibition was half-maximal at 109 nM (IC50).
Molecule `COc1cc(-c2cccc(F)c2)c(Cl)cc1-n1c(=O)ccc2cc(S(=O)(=O)Nc3cccnn3)ccc21` (atropisomer, axis not shown; (M)) [Example 468, (M)-1-(2-chloro-3′-fluoro-5-methoxy-[1,1′-biphenyl]-4-yl)-2-oxo-N-(pyridazin-3-yl)-1,2-dihydroquinoline-6-sulfonamide] registered an IC50 of 7000 nM.
In turn, `COc1cc(-c2ccc(Cl)c(C)c2)c(F)cc1-n1c(=O)ccc2cc(S(=O)(=O)Nc3ncon3)ccc21` (atropisomer, axis not shown; (P)) [Example 663, (P)-1-(4′-chloro-2-fluoro-5-methoxy-3′-methyl-4-biphenylyl)-N-1,2,4-oxadiazol-3-yl-2-oxo-1,2-dihydro-6-quinolinesulfonamide] showed a half-maximal inhibitory concentration (IC50) (in-vitro Nav 1.7 PX data) of 6 nM. That is a single-digit nanomolar value.
Same read-out and setting: as for `COc1cc(-c2ccc(C#N)cc2)c(F)cc1-n1c(=O)ccc2cc(S(=O)(=O)Nc3ccon3)ccc21` [Example 754, 1-(4′-cyano-2-fluoro-5-methoxy-4-biphenylyl)-N-3-isoxazolyl-2-oxo-1,2-dihydro-6-quinolinesulfonamide], the figure is 132 nM; as for `COc1cc(-c2ccc(F)c(F)c2)ccc1-n1c(=O)ccc2cc(S(=O)(=O)Nc3ncccn3)ccc21` [Example 897, 1-(3′,4′-difluoro-3-methoxy-4-biphenylyl)-2-oxo-N-2-pyrimidinyl-1,2-dihydro-6-quinolinesulfonamide], 100 nM.
Still for that read-out and setting: as for `COc1cc(-c2ccc(Cl)cc2F)c(F)cc1-n1c(=O)ccc2cc(S(=O)(=O)Nc3ccon3)ccc21` [Example 733, 1-(4′-chloro-2,2′-difluoro-5-methoxy-4-biphenylyl)-N-3-isoxazolyl-2-oxo-1,2-dihydro-6-quinolinesulfonamide], the figure is 20 nM.
In turn, `COc1cc(-c2ccc(Cl)c(C)c2)c(Cl)cc1-n1c(=O)ccc2cc(S(=O)(=O)Nc3ccon3)ccc21` (atropisomer, axis not shown; (M)) [Example 472, (M)-1-(2,4′-dichloro-5-methoxy-3′-methyl-[1,1′-biphenyl]-4-yl)-N-(isoxazol-3-yl)-2-oxo-1,2-dihydroquinoline-6-sulfonamide] showed an IC50 of 786 nM.
On to `COc1cc(-c2ccc(C)c(Cl)c2)c(F)cc1-n1c(=O)ccc2cc(S(=O)(=O)Nc3ccon3)c(F)cc21` [Example 979, 1-(3′-chloro-2-fluoro-5-methoxy-4′-methyl-4-biphenylyl)-7-fluoro-N-3-isoxazolyl-2-oxo-1,2-dihydro-6-quinolinesulfonamide], for which the half-maximal inhibitory concentration (IC50) (in-vitro Nav 1.7 PX data) is 21 nM. This lies in the double-digit nanomolar range.
The same measure, in the same setting: to `COc1cc(C2CCCCC2)c(F)cc1-n1c(=O)ccc2cc(S(=O)(=O)Nc3ccon3)ccc21` [Example 1077, 1-(4-cyclohexyl-5-fluoro-2-methoxyphenyl)-N-3-isoxazolyl-2-oxo-1,2-dihydro-6-quinolinesulfonamide] belongs 38 nM.
Under setting [1], `COc1cc(-c2cc(C)ccc2C)ccc1-n1c(=O)ccc2cc(S(=O)(=O)Nc3ccon3)ccc21` [Example 1055, N-3-isoxazolyl-1-(3-methoxy-2′,5′-dimethyl-4-biphenylyl)-2-oxo-1,2-dihydro-6-quinolinesulfonamide] gave an IC50 of 16 nM.
Take `COc1cc(CC2CCCCC2)c(F)cc1-n1c(=O)ccc2cc(S(=O)(=O)Nc3cnccn3)ccc21` [Example 1116, 1-(4-(cyclohexylmethyl)-5-fluoro-2-methoxyphenyl)-2-oxo-N-2-pyrazinyl-1,2-dihydro-6-quinolinesulfonamide]: for the setting “in-vitro Nav 1.7 PX data”, it took 30 nM to reach half-maximal inhibition (IC50).
On the same count and under the same terms, as for `COc1ccc(-c2cccc(F)c2F)cc1-n1c(=O)ccc2cc(S(=O)(=O)Nc3ccon3)ccc21` [Example 848, 1-(2′,3′-difluoro-4-methoxy-3-biphenylyl)-N-3-isoxazolyl-2-oxo-1,2-dihydro-6-quinolinesulfonamide], the figure is 118 nM; as for `COc1cc(-c2ccc(F)cc2)c(F)cc1-n1c(=O)ccc2cc(S(=O)(=O)Nc3ncco3)ccc21` [Example 771, 1-(2,4′-difluoro-5-methoxy-4-biphenylyl)-N-1,3-oxazol-2-yl-2-oxo-1,2-dihydro-6-quinolinesulfonamide], 53 nM; as for `COc1cc(-c2ccc(F)c(F)c2)ccc1-n1c(=O)ccc2cc(S(=O)(=O)Nc3cc(C)ncn3)ccc21` [Example 899, 1-(3′,4′-difluoro-3-methoxy-4-biphenylyl)-N-(6-methyl-4-pyrimidinyl)-2-oxo-1,2-dihydro-6-quinolinesulfonamide], 107 nM.
For the molecule `N#CCOc1cc(-c2cccc(F)c2)c(F)cc1-n1c(=O)ccc2cc(S(=O)(=O)Nc3ccon3)ccc21` [Example 387, 1-(5-(cyanomethoxy)-2,3′-difluoro-[1,1′-biphenyl]-4-yl)-N-(isoxazol-3-yl)-2-oxo-1,2-dihydroquinoline-6-sulfonamide], the IC50 was 89 nM.
As to `COc1cc(-c2cccc(OC(F)F)c2)ccc1-n1c(=O)ccc2cc(S(=O)(=O)Nc3ccon3)ccc21` [Example 786, 1-(3′-(difluoromethoxy)-3-methoxy-4-biphenylyl)-N-3-isoxazolyl-2-oxo-1,2-dihydro-6-quinolinesulfonamide], the IC50 (in-vitro Nav 1.7 PX data) was determined as 48 nM.
As to `COc1cc(-c2ccc(Cl)c(C)c2)ccc1-n1c(=O)ccc2cc(S(=O)(=O)Nc3cccnn3)ccc21` (atropisomer, axis not shown; (M)) [Example 372, (M)-1-(4′-chloro-3-methoxy-3′-methyl-4-biphenylyl)-2-oxo-N-3-pyridazinyl-1,2-dihydro-6-quinolinesulfonamide], where the note is “in-vitro PatchXpress (PX)”, the IC50 was 29 nM.
On to `COc1ccc(C#N)cc1-c1cc(OC)c(-n2c(=O)ccc3cc(S(=O)(=O)Nc4ccon4)ccc32)cc1F` [Example 718, 1-(5′-cyano-2-fluoro-2′,5-dimethoxy-4-biphenylyl)-N-3-isoxazolyl-2-oxo-1,2-dihydro-6-quinolinesulfonamide], for which it took 153 nM to reach half-maximal inhibition (in-vitro Nav 1.7 PX data) (IC50). This lies in the sub-micromolar range.
As to `COc1cc(-c2cc(C)ccc2Cl)c(F)cc1-n1c(=O)ccc2cc(S(=O)(=O)Nc3ccon3)ccc21` [Example 716, 1-(2′-chloro-2-fluoro-5-methoxy-5′-methyl-4-biphenylyl)-N-3-isoxazolyl-2-oxo-1,2-dihydro-6-quinolinesulfonamide], for the setting “in-vitro Nav 1.7 PX data”, inhibition was half-maximal at 6 nM (IC50).
`COc1cc(Cl)cc(-c2ccc(-n3c(=O)ccc4cc(S(=O)(=O)Nc5cccnn5)ccc43)c(OC)c2)c1` [Example 928, 1-(3′-chloro-3,5′-dimethoxy-4-biphenylyl)-2-oxo-N-3-pyridazinyl-1,2-dihydro-6-quinolinesulfonamide] showed a concentration for half-maximal inhibition (IC50) (in-vitro Nav 1.7 PX data) of 8 nM.
With `COc1cc(-c2cc(OC)c(-n3c(=O)ccc4cc(S(=O)(=O)Nc5ncccn5)ccc43)cc2F)ccc1F` [Example 1006, 1-(2,4′-difluoro-3′,5-dimethoxy-4-biphenylyl)-2-oxo-N-2-pyrimidinyl-1,2-dihydro-6-quinolinesulfonamide], half-maximal inhibition (in-vitro Nav 1.7 PX data) (IC50) required 76 nM.
For the molecule `COc1cc(-c2cc(C)ccc2F)ccc1-n1c(=O)ccc2cc(S(=O)(=O)Nc3ccon3)ccc21` [Example 1032, 1-(2′-fluoro-3-methoxy-5′-methyl-4-biphenylyl)-N-3-isoxazolyl-2-oxo-1,2-dihydro-6-quinolinesulfonamide], the IC50 under setting [1] stood at 49 nM.
For `COc1cc(F)cc(-c2ccc(-n3c(=O)ccc4cc(S(=O)(=O)Nc5ncco5)ccc43)c(OC)c2)c1` [Example 1005, 1-(3′-fluoro-3,5′-dimethoxy-4-biphenylyl)-N-1,3-oxazol-2-yl-2-oxo-1,2-dihydro-6-quinolinesulfonamide], the concentration for half-maximal inhibition (IC50) (in-vitro Nav 1.7 PX data) is 268 nM.
Regarding `COc1cc(N2CC(C(F)(F)F)C2)c(F)cc1-n1c(=O)ccc2cc(S(=O)(=O)Nc3ccon3)ccc21` [Example 530, 1-(5-fluoro-2-methoxy-4-(3-(trifluoromethyl)-1-azetidinyl)phenyl)-N-3-isoxazolyl-2-oxo-1,2-dihydro-6-quinolinesulfonamide], where the note is “in-vitro PatchXpress (PX)”, the 50% inhibitory concentration (IC50) is 495 nM.
Consider `COc1ccc(-c2cc(Cl)ccc2F)cc1-n1c(=O)ccc2cc(S(=O)(=O)Nc3ccon3)ccc21` [Example 880, 1-(5′-chloro-2′-fluoro-4-methoxy-3-biphenylyl)-N-3-isoxazolyl-2-oxo-1,2-dihydro-6-quinolinesulfonamide], for which the half-maximal inhibitory concentration (IC50) (in-vitro Nav 1.7 PX data) was found to be 32 nM.
